Measurements reported in US9896710B2, “Glycosyltransferase derived from Dolwoe and use thereof” (KOREA ADVANCED INSTITUTE OF SCIENCE AND TECHNOLOGY, priority 2014, dated 2018).

Tested on: UDP-glycosyltransferase GpUGT23
Assay: In vitro glycosyltransferase assay of purified recombinant GpUGT23 with ginsenoside substrates and UDP-glucose
Type: biochemical, Dolwoe (Gynostemma pentaphyllum)
Conditions: purified GpUGT23 30 μg, ginsenoside 5 mM, UDP-glucose 50 mM, 10 mM PBS pH 7, 37° C., 12 hours, products: CK->gypenoside LXXV, F2->gypenoside XVII, Rd->Rb1, F1->notoginsenoside U; for conversion of the ginsenoside by GpUGT23 (glycosyltransfer activity), HPLC: UV 203 nm (FIGS. 3 and 4); for conversion of the ginsenoside by GpUGT23 (glycosyltransfer activity), TLC: TLC (FIG. 2)
Experimental: A glycosyltransferase assay was performed in a reaction buffer (10 mM PBS buffer, pH 7) containing the purified GpUGT23 (30 μg), a ginsenoside compound (5 mM) and UDP-glucose (50 mM). For this assay, 4 different types of ginsenosides, including CK (Compound K), F2, Rd, and F1, were used and reacted with the enzyme of the present invention.
The reaction mixture was incubated at 37° C. for 12 hours, and then the products were analyzed by thin-layer chromatography (TLC) or high performance liquid chromatography (HPLC).
TLC analysis was performed using a mobile phase (acetone:methanol:DDW=65:35:10 vol/vol) and a 60F254 silica gel plate (Merck, Germany). The resolved product on the TLC plate was detected by spraying the plate with 10% (vol/vol) sulfuric acid (H2SO4) and heating it at 110° C. for 5 minutes (FIG. 2).
HPLC analysis was performed using ODS(2) C18 column (Phenomenex, USA). Water and acetonitrile gradient application time and a component ratio are as follows: at a flow rate of 1 mL per minute, at 0 minutes, 68% water and 32% acetonitrile; 8 minutes, 35% water and 65% acetonitrile; 12 minutes, 0% water and 100% acetonitrile; 20 minutes, 0% water and 100% acetonitrile; 20.1 minutes, 68% water and 32% acetonitrile; and 28 minutes, 68% water and 32% acetonitrile (FIGS. 3 and 4).
Ginsenosides were detected by using a UV-detector (Agilent, USA) at a wavelength of 203 nm.
Substrate specificity and regioselectivity of GpUGT23 were examined by the method described in Example 2.
First, the recombinant GpUGT of Example 1, GpUGT23, was reacted with 9 types of ginsenosides (PPD, Rh2, Rg3, CK, F2, Rd, PPT, F1, and Rh1) in the presence of UDP-glucose, and the reaction products of CK, F2, Rd, and F1 were analyzed by TLC (thin-layer chromatography).
To further analyze these, 4 different types of ginsenosides (CK, F2, Rd, and F1) were incubated with GpUGT23, and then the products converted by the recombinant GpUGT23 were analyzed by TLC, and the results are shown in FIG. 2. The results were confirmed by comparing their migrating spots with migrating spots of CK, Gyp75 (gypenoside LXXV), F2, Gyp17 (gypenoside XVII), Rd, Rb1, and F1 used as reference samples.

SMILES | conversion of the ginsenoside by GpUGT23 (glycosyltransfer activity), HPLC | conversion of the ginsenoside by GpUGT23 (glycosyltransfer activity), TLC
CC(C)=CCC[C@](C)(O)[C@H]1CC[C@]2(C)[C@@H]1[C@H](O)C[C@@H]1[C@@]3(C)CC[C@H](O)C(C)(C)[C@@H]3[C@@H](O[C@@H]3O[C@H](CO)[C@@H](O)[C@H](O)[C@H]3O)C[C@]12C [Rh1] | did not react | –
CC(C)=CCC[C@](C)(O)[C@H]1CC[C@]2(C)[C@@H]1[C@H](O)C[C@@H]1[C@@]3(C)CC[C@H](O)C(C)(C)[C@@H]3[C@@H](O)C[C@]12C [PPT, protopanaxatriol] | did not react | –
CC(C)=CCC[C@](C)(O)[C@H]1CC[C@]2(C)[C@@H]1[C@H](O)C[C@@H]1[C@@]3(C)CC[C@H](O[C@@H]4O[C@H](CO)[C@@H](O)[C@H](O)[C@H]4O)C(C)(C)[C@@H]3CC[C@]12C [Rh2] | did not react | –
CC(C)=CCCC(C)(O)[C@H]1CC[C@]2(C)[C@@H]1[C@H](O)C[C@@H]1[C@@]3(C)CC[C@H](O)C(C)(C)[C@@H]3CC[C@]12C (stereo in doubt) [PPD, protopanaxadiol] | did not react | –
CC(C)=CCC[C@](C)(O[C@@H]1O[C@H](CO)[C@@H](O)[C@H](O)[C@H]1O)[C@H]1CC[C@]2(C)[C@@H]1[C@H](O)C[C@@H]1[C@@]3(C)CC[C@H](O)C(C)(C)[C@@H]3CC[C@]12C [CK, Compound K] | converted | converted

More lines, now with the values ahead:

conversion of the ginsenoside by GpUGT23 (glycosyltransfer activity), HPLC | conversion of the ginsenoside by GpUGT23 (glycosyltransfer activity), TLC | SMILES
did not react | – | CC(C)=CCC[C@](C)(O)[C@H]1CC[C@]2(C)[C@@H]1[C@H](O)C[C@@H]1[C@@]3(C)CC[C@H](O[C@@H]4O[C@H](CO)[C@@H](O)[C@H](O)[C@H]4O[C@@H]4O[C@H](CO)[C@@H](O)[C@H](O)[C@H]4O)C(C)(C)[C@@H]3CC[C@]12C [Rg3]
did not transfer a sugar | – | CC(C)=CCC[C@](C)(O)[C@H]1CC[C@]2(C)[C@@H]1[C@H](O)C[C@@H]1[C@@]3(C)CC[C@H](O)C(C)(C)[C@@H]3[C@@H](O[C@@H]3O[C@H](CO)[C@@H](O)[C@H](O)[C@H]3O[C@@H]3O[C@@H](C)[C@H](O)[C@@H](O)[C@H]3O)C[C@]12C [Rg2]
converted | converted | CC(C)=CCC[C@](C)(O[C@@H]1O[C@H](CO)[C@@H](O)[C@H](O)[C@H]1O)[C@H]1CC[C@]2(C)[C@@H]1[C@H](O)C[C@@H]1[C@@]3(C)CC[C@H](O)C(C)(C)[C@@H]3[C@@H](O)C[C@]12C [F1]
converted | converted | CC(C)=CCC[C@](C)(O[C@@H]1O[C@H](CO)[C@@H](O)[C@H](O)[C@H]1O)[C@H]1CC[C@]2(C)[C@@H]1[C@H](O)C[C@@H]1[C@@]3(C)CC[C@H](O[C@@H]4O[C@H](CO)[C@@H](O)[C@H](O)[C@H]4O)C(C)(C)[C@@H]3CC[C@]12C [F2]
converted | converted | CC(C)=CCC[C@](C)(O[C@@H]1O[C@H](CO)[C@@H](O)[C@H](O)[C@H]1O)[C@H]1CC[C@]2(C)[C@@H]1[C@H](O)C[C@@H]1[C@@]3(C)CC[C@H](O[C@@H]4O[C@H](CO)[C@@H](O)[C@H](O)[C@H]4O[C@@H]4O[C@H](CO)[C@@H](O)[C@H](O)[C@H]4O)C(C)(C)[C@@H]3CC[C@]12C [Rd]
